According to patent US20060229233A1, “Compositions and methods for treating neurological disorders” (ID Biomedical Corporation, priority 2004, published 2006):
Where two headings read alike, the source gives them in different places. Marks after values point to notes of the source that are not given here.

What was measured:
microglial phagocytosis = details: Cha, A. et al. (2001) GLIA 33(1):87-95; cited from earlier work
[1] = system: hippocampus of APP tg mice; test: Immunohistochemistry of hippocampus in immunized animals; type: in vivo; details: for activated microglia (CD11b) in hippocampus: immunization in CFA, APP tg mice
Experimental: Immunohistology. The staining was performed utilizing the following markers: T-cells (CD3; BD Biosciences:553057), microglia/macrophages (CD11b; Serotec:MCA74G), (C-MFR; Cymbus Biotech:21080096), IFN-γ (Pharmingen: 559065), IL-10 (Pharmingen:559063) and TGF-β (RD:AB-20-PB). Anti-amyloid antibodies (R1282) were a gift of Dennis Seloke. Brain sections were further subject to Haematoxylin staining. Sections were evaluated in a blinded manner, and controls included use of isotype-matched mAbs as previously described. For each treatment the quantification was done from the hippocampal region of three different brain sections (the same region, Bregma −1.34, that were used for ThS staining). The results are expressed as the mean of the labeled cells for each marker.

J20 APP transgenic mice = type: in vivo; details: for occurrence of EAE: immunization in CFA + pertussis toxin
Experimental: Induction and clinical evaluation of EAE in APP+ mice. (B6D2)F1 or (B6XSJL)F1 APP+ (WT or B-cell deficient μMT) and non-tg littermates were immunized in the hind footpads with 100 μg MOG(35-55), PLP 139-151 or 100 μg β-amyloid peptide (1-40) in CFA. Immediately thereafter and again 48 hours later mice received an i.p. injection containing 150 ng of pertussis toxin in 0.2 ml PBS. Animals were monitored for symptoms of EAE beginning 7 days after immunization and scored as follows: 0, no disease; 1, tail paralysis; 2, hind limb weakness; 3, hind limb paralysis; 4, hind limb plus forelimb paralysis; and 5, moribund.
Nasal vaccination. Glatiramer acetate: 25 μg was given on days 1, 2, 4 and 5 the first week followed by a weekly boost for six weeks. IVX-908: 1 μg/mouse was given on days 1 and 5 the first week followed by a weekly boost for six weeks. BSA+IVX-908: 25 μg of BSA plus 1 ug IVX-908 were given on days 1 and 5 the first week, and 25 μg of BSA alone was given on days 2 and 4, followed by six weekly boosts of the combination of BSA+IVX-908. GA+IVX-908: 25 μg of GA plus 1 μg IVX-908 were given on days 1 and 5 the first week, and 25 μg of GA alone was given on days 2 and 4, followed by six weekly boosts of the combination of GA+IVX-908.

Aβ40 and Aβ42 [2] = test: Total brain Aβ by sandwich ELISA, J20 APP transgenic mice; type: in vivo; details: for Total brain Aβ: subcutaneous immunization in CFA + pertussis toxin
Experimental: FIG. 1: Effect of subcutaneous immunization on total Aβ levels in the brain. To quantify amyloid burden, the right hemisphere was extracted in 5.0 M guanidinium-chloride (pH 8) for 3 hours at room temperature. Dilutions were used to measure levels of Aβ40 and Aβ42 by sandwich enzyme-linked immunosorbent assays (ELISA).
Amyloid quantification. To quantify amyloid burden, the right hemisphere was extracted in 5.0 M guanidinium-chloride (pH 8) for 3 hours at room temperature. Dilutions were used to measure levels of insoluble (amyloid-associated) […] and Aβ42 by sandwich enzyme-linked immunosorbent assays (ELISA). […] Brains were frozen in the presence of OCT paraformaldehyde, cut to 14-μm longitudinal sections used for immunohistological staining and amyloid fibril quantification. […] Images (magnification ×20) from these sections were collected from a 3CCD color video camera and analyzed with appropriate software (NIH; Imaging Research). The amount of amyloid fibril was expressed as a percentage per mm^2 hippocampal region as measured by the software.

Aβ fibrils = type: in vivo, mice; details: for % Area of thioflavin positive Aβ plaques (hippocampus): subcutaneous immunization in CFA + pertussis toxin
Experimental: Amyloid quantification. To quantify amyloid burden, the right hemisphere was extracted in 5.0 M guanidinium-chloride (pH 8) for 3 hours at room temperature. Dilutions were used to measure levels of insoluble (amyloid-associated) […] and Aβ42 by sandwich enzyme-linked immunosorbent assays (ELISA). To measure Aβ fibrils, the left hemisphere was fixed in 4% […] O/N followed by 4.5% sucrose for 4 hours then 20% Sucrose for O/N at 4° C. Brains were frozen in the presence of OCT paraformaldehyde, cut to 14-μm longitudinal sections used for immunohistological staining and amyloid fibril quantification. Well-defined hippocampal regions (Bregma −1.34), were selected for quantification of the amount of amyloid fibril in plaques using thioflavin-S staining. Images (magnification ×20) from these sections were collected from a 3CCD color video camera and analyzed with appropriate software (NIH; Imaging Research). The amount of amyloid fibril was expressed as a percentage per mm^2 hippocampal region as measured by the software.

APP non-transgenic mice = test: Microglial activation in APP non-transgenic mice; type: in vivo; details: parenteral with CFA/PT or nasal
Aβ40 and Aβ42 [3] = test: Total brain Aβ by sandwich ELISA, J20 APP transgenic mice; type: in vivo
Aβ = test: Anti-Aβ antibody level (IgG, OD) in immunized J20 APP transgenic mice; type: in vivo
Experimental: Antibody levels were measured against Aβ in animals immunized with MOG or PLP to determine if there was cross reactivity with Aβ and Aβ antibody titers as compared to those from animals immunized with Aβ. […] To definitively establish that antibodies were not playing a role, 16-month-old J20 mice bred to μMT B-cell deficient mice were immunized with MOG 35-55 in CFA followed by administration of Pertussis toxin.

[4] = immunization in CFA + pertussis toxin, APP transgenic mice
[5] = nasal immunization, J20 APP transgenic mice
[6] = subcutaneous (footpad) immunization in CFA + pertussis toxin, J20 APP transgenic mice, scale 0-5
[7] = level of OD at titer of 1:500 IgG, subcutaneous immunization in CFA + pertussis toxin, J20 APP transgenic mice
[8] = μMT B-cell deficient J20 APP+ mice
[9] = μMT B-cell deficient APP+ mice, CFA + Pertussis toxin
[10] = Subcutaneous (CFA/P.T.), B-deficient mice

| Substance | activated microglia (CD11b) in hippocampus [1] | occurrence of EAE (J20 APP transgenic mice) | reduction of total brain Aβ (ELISA) / total amyloid load vs. control (Aβ40 and Aβ42 [2]; [4]) | Total brain Aβ (Aβ40 and Aβ42 [2]; J20 APP transgenic mice) | CD3, number of cells per hippocampal region ([1]; Subcutaneous (CFA/P.T.)) | CD11b, number of cells per hippocampal region ([1]; Subcutaneous (CFA/P.T.)) | IFN-γ, number of cells per hippocampal region ([1]; Subcutaneous (CFA/P.T.)) | IL-10, number of cells per hippocampal region ([1]; Subcutaneous (CFA/P.T.)) | M-CSFR, number of cells per hippocampal region ([1]; Subcutaneous (CFA/P.T.)) | TGF-β, number of cells per hippocampal region ([1]; Subcutaneous (CFA/P.T.)) | reduction of staining for Aβ fibril in the hippocampus (thioflavin S) vs. controls (Aβ fibrils; [4]) | % Area of thioflavin positive Aβ plaques (hippocampus) (Aβ fibrils; J20 APP transgenic mice) | EAE score (J20 APP transgenic mice; [6]) | Anti-Aβ Antibody (Aβ; [7]) | also measured |
| --- | --- | --- | --- | --- | --- | --- | --- | --- | --- | --- | --- | --- | --- | --- | --- |
| INF-gamma: Th1-type cytokine INF-gamma | – | – | – | – | – | – | – | – | – | – | – | – | – | – | augmentation of microglial phagocytosis (microglial phagocytosis): 75 % above untreated |
| bovine serum albumin [BSA/CFA] | 76±17 cells/hippocampus region | no EAE was observed | – | – | – | – | – | – | – | – | – | – | – | – | – |
| glatiramer acetate [GA] | – | no clinical EAE | 70% | 39.1 ± 12.8 ^c ng/ml | 61 ± 12 ^i cells per hippocampal region | 227 ± 61 ^i cells per hippocampal region | 85 ± 11 ^iv cells per hippocampal region | 59 ± 7 cells per hippocampal region | 57 ± 8 cells per hippocampal region | 31 ± 7 cells per hippocampal region | 92% | 0.26 ± 0.1 ^d % | 0 | 0 OD | CD3, number of cells per hippocampal region ([1]; NASAL): 35 ± 19 cells per hippocampal region; CD11b, number of cells per hippocampal region ([1]; NASAL): 136 ± 12 cells per hippocampal region; IFN-γ, number of cells per hippocampal region ([1]; NASAL): 53 ± 3 ^i cells per hippocampal region; IL-10, number of cells per hippocampal region ([1]; NASAL): 75 ± 7 cells per hippocampal region; M-CSFR, number of cells per hippocampal region ([1]; NASAL): 30 ± 9 cells per hippocampal region; TGF-β, number of cells per hippocampal region ([1]; NASAL): 77 ± 10 cells per hippocampal region; effect on Aβ fibrils / fibrillar Aβ staining (Aβ fibrils; mouse, in vivo): did not affect Aβ fibrils; % Area of thioflavin S positive Aβ plaques (hippocampus) (Aβ fibrils; [5]): 2.06 ± 0.8%; microglial activation in APP non-transgenic mice (APP non-transgenic mice): No microglial activation; EAE score (J20 APP transgenic mice; [5]): 0; effect on total Aβ levels in the brain (Aβ40 and Aβ42 [3]; nasal administration): slight reduction; Total brain Aβ (Aβ40 and Aβ42 [3]; [5]): 97.6 ± 15.5 ng/mL; Anti-Aβ Antibody (Aβ; level of OD 450 at titer of 1:50 IgG, nasal immunization, J20 APP transgenic mice): 0 OD 450 |
| human β-amyloid peptide (Aβ amino acids 1-40) | 106±27 cells/hippocampus region | no EAE was observed | – | 60.8 ± 16 ^a ng/ml | 10 ± 2 cells per hippocampal region | 106 ± 27 cells per hippocampal region | 9 ± 2 cells per hippocampal region | 44 ± 5 cells per hippocampal region | 34 ± 11 cells per hippocampal region | 41 ± 5 cells per hippocampal region | – | 0.83 ± 0.3 ^a % | 0 | 0.75 OD | – |
| myelin oligodendrocyte glycoprotein (MOG) peptide (amino acids 35-55) (MEVGWYRSPFSRVVHLYRNGK; UniProt Q61885 63-83, looked up, fragment) | 349±34.3 cells/hippocampus region | – | 94% | 8.4 ± 2.1 ^b ng/ml | 142 ± 19 ^iv cells per hippocampal region | 349 ± 34.3 ^iv cells per hippocampal region | 109 ± 7 ^iv cells per hippocampal region | 21 ± 9 ^ii cells per hippocampal region | 79 ± 5 ^i cells per hippocampal region | 20 ± 5 ^iii cells per hippocampal region | 92% | 0.22 ± 0.1 ^b % | 2.5 ± 0.8 | 0 OD | reduction of total brain Aβ (ELISA) compared to Aβ 1-40 immunized mice (Aβ40 and Aβ42 [2]; [4]): 86%; Total brain Aβ (Aβ40 and Aβ42 [2]; [8]): 11.4 ± 2.7 ^b ng/ml; reduction in amyloid compared to control by ELISA for total brain amyloid (Aβ40 and Aβ42 [2]; [9]): 90%; CD3, number of cells per hippocampal region [1, 10]: 195 ± 12 ^iv cells per hippocampal region; CD11b, number of cells per hippocampal region [1, 10]: 462 ± 23 ^iv cells per hippocampal region; IFN-γ, number of cells per hippocampal region [1, 10]: 119 ± 18 ^iv cells per hippocampal region; IL-10, number of cells per hippocampal region [1, 10]: 25 ± 5 ^i cells per hippocampal region; M-CSFR, number of cells per hippocampal region [1, 10]: 77 ± 6 ^i cells per hippocampal region; TGF-β, number of cells per hippocampal region [1, 10]: 22 ± 8 ^ii cells per hippocampal region; reduction of staining for Aβ fibril in the hippocampus (thioflavin S) compared to mice immunized with Aβ 1-40 (Aβ fibrils; [4]): 73%; % Area of thioflavin positive Aβ plaques (hippocampus) (Aβ fibrils; [8]): 0.27 ± 0.04 ^b %; reduction in amyloid compared to control by ThS staining (Aβ fibrils; [9]): 90%; EAE score (J20 APP transgenic mice; subcutaneous immunization in CFA + pertussis toxin, μMT B-cell deficient J20 APP+ mice): 2.7 ± 0.4; anti-Aβ antibodies (Aβ; MOG immunization): not detected; Anti-Aβ Antibody (Aβ; level of OD at titer of 1:500 IgG, subcutaneous, μMT B-cell deficient J20 APP+ mice): 0 OD |
